Patent USH1168H, “Inhibitors of protein kinase C activity as protectors against septic shock and reducers of ARDS” (priority 1991, dated 1993)
“Also recorded” adds a separate entry of the source.

What was measured:
[1] = system: rat aortic rings; assay: Direct contraction of rat aortic rings by phorbol dibutyrate; type: cell-based; design: Emax: dose or concentration left out as unconfirmed; conditions: for EC50: read-out: EC50 for contraction by PDB
Procedure: Four rings were prepared from each rat and one ring allocated into each medium formulation. Data is presented as in FIG. 1.
(§1) Tissue preparation and incubation. Male Sprague-Dawley rats (250-350 g, Taconic Farms, Germantown, N.Y.) were used. Rat thoracic aortic rings were prepared and incubated as detailed by McKenna (14). In brief, 4 or 6 rings were prepared from each rat. Care was taken during dissection to maintain the patency of the endothelium. Some aortas were de-endothelialized before sectioning into rings by perfusion with phosphate buffered saline (PBS) containing 1% deoxycholate for 30 sec followed by a PBS and bubble rinse for 5 min. Rings were incubated in DME (Dulbecco's Modified Eagle's medium) supplemented with 1% fetal calf serum, 100 μg/ml streptomycin, and 100 U/ml penicillin. During incubation, the rings were exposed to combinations of LPS (10 or 35 ng/ml), H7 (25 μM), HA1004 (N-(2-guanidinoethyl)-5-isoquinolinesulfonamide) (25 μM), sphingosine (20 μM), or their vehicles. […] Rings used in measures of contractile performance were placed individually in Petri dishes containing 1.2 ml DME and were distributed so that tissue isolated from each aorta was allocated to every combination of treatments within an experiment. […] All tissue isolated from an aorta (six rings) was allocated to a single treatment. The media and rings were rotated gently for 16-18 hr in an incubator at 37° C. under a 95% O2 -5% CO2 atmosphere.
(§2) Measurement of aortic ring contraction. After incubation, rings were mounted in tissue baths, equilibrated, and pre-contracted as previously detailed (14). These procedures required approximately 90 min. Rings were maintained in Krebs Ringer Bicarbonate buffer (KRB, 14). Contractions by six or eight rings were measured simultaneously and recorded on multichannel strip chart recorders. […] Other rings were contracted by withdrawing KRB from the tissue baths and adding increasing volumes of a high KCl KRB (120 mM, made by equimolar substitution of KCl for NaCl) to the baths to yield final KCl concentrations of 10 to 80 mM. All rings were blotted and weighed after experiments were completed.
(§3) Statistics. […] Tests for differences between EC50 values were based on log EC50 values (17). EC50 values were then converted to […] means to allow expression as nanomolar concentrations. Examination of differences among four or six treatment means was by randomized blocks analysis of variance; if significant differences were present, then pairs of means were tested by Student-Newman-Keuls a posteriori tests (18). Paired t-tests were used to assess differences between two treatment means. […] Differences with probabilities of 0.05 or less were accepted as significant. All data are expressed as means±SEM.

[2] = system: rat aortic rings; assay: KCl-induced contraction of rat aortic rings after 16 h incubation with phorbol dibutyrate; type: cell-based; conditions: for EC50: Rattus norvegicus, 16 h
Procedure: (§4) (Panel B) Contraction to KCl by rings incubated and denoted with the same symbols as detailed above. Four rings were prepared from each rat and one ring allocated into each medium formulation to evaluate responses to NE. Rings were similarly prepared to determine responses to KCl. Data presented as in FIG. 1. N=6 rats apiece for assessment of responses to NE and KCl.
(§5) (Panel B) Contraction to KCl by rings incubated and denoted with the same symbols as detailed above. Four rings were prepared from each rat and one ring allocated into each medium formulation. Data is presented as in FIG. 1. N=8 rats for assessment of responses to both NE and KCl.
as §1, §2, §3

[3] = system: rat aortic rings; assay: NE-induced contraction of rat aortic rings after 16 h incubation with phorbol dibutyrate; type: cell-based; design: contractions to NE; vascular suppression: dose or concentration left out as unconfirmed; conditions: for EC50: Rattus norvegicus, 16 h
Procedure: as §4, §5, §1, §2, §3

[4] = system: deendothelialized rat aortas; conditions: literature (26); cited from earlier work
[5] = system: platelets; conditions: pretreatment; stimulation with thrombin, OAG, linoleic or linolelaidic acid (25); cited from earlier work
[6] = system: endothelial cells; conditions: literature (3); cited from earlier work
[7] = system: endothelial cells; conditions: literature (1, 2); cited from earlier work
[8] = system: intact endothelium rat aortic rings; assay: KCl-induced contraction of intact rat aortic rings after 16 h incubation with LPS and/or PKC inhibitors; type: cell-based; conditions: for EC50: Rattus norvegicus, 16 h, intact endothelium, read-out: EC50 value for KCl stimulated contraction (EC50 of the agonist KCl)
Procedure: FIG. 2 is a graph showing contraction to cumulative doses of KCl by rat aortic rings incubated for 16 hr in combinations of control, LPS, H7, and HA1004 treated media. (Panel A) Response by rings incubated in medium only (open circles), medium plus H7 (25 μM, closed circles), medium containing LPS (10 ng/ml, open triangles), and medium containing LPS plus H7 (closed triangles). (Panel B) For clarity in presentation, responses by rings incubated in medium only (open circles) and LPS treated medium (open triangles) are reproduced from Panel A. Additional rings were incubated in medium plus HA1004 (25 μM, closed circles), and medium containing LPS plus HA1004 (closed triangles). Rings were prepared and data is presented as described in FIG. 1. N=6 rats.
as §1, §2, §3

[9] = system: intact endothelium rat aortic rings; assay: NE-induced contraction of intact rat aortic rings after 16 h incubation with LPS and/or PKC inhibitors; type: cell-based; conditions: for EC50: Rattus norvegicus, 16 h, intact endothelium, read-out: EC50 value for NE stimulated contraction (EC50 of the agonist NE)
Procedure: FIG. 1 is a graph showing contraction to cumulative doses of NE by rat aortic rings incubated for 16 hr in combinations of control, LPS (endotoxin or lipopolysaccharide), H7, and N-(2-guanidinoethyl)-5-isoquinolinesulfonamide (HA1004; a negative control for H7) treated media. (Panel A) Responses by rings incubated in medium only (open circles), medium plus H7 (25 μM, closed circles), medium containing LPS (10 ng/ml, open triangles), and medium containing LPS plus H7 (closed triangles). (Panel B) For clarity in presentation, responses by rings incubated in medium only (open circles) and LPS treated medium (open triangles) are reproduced from Panel A. Additional rings were incubated in medium plus HA1004 (25 μM, closed circles), and medium containing LPS plus HA1004 (closed triangles). Six rings were prepared from each rat and one ring allocated into each medium formulation. […] The curves are the best fit of the data by nonlinear least squares to a polynomial model. N=8 rats.
as §1, §2, §3

[10] = system: human neutrophils; conditions: PMA alone (31); cited from earlier work
[11] = system: Rabbit aortic smooth muscle cells; conditions: literature (29); cited from earlier work
[12] = system: Rabbit aortic smooth muscle cells; conditions: literature; cited from earlier work
[13] = system: PKC; conditions: literature (33,34); cited from earlier work
[14] = LPS 10 ng/ml plus inhibitor 25 μM
[15] = LPS-treated media (10 ng/ml), alone or plus inhibitor 25 μM
[16] = control media (no LPS) plus inhibitor 25 μM
[17] = inhibitor 25 μM by itself, no LPS

## CCCC(=O)O[C@@H]1[C@@H](C)[C@@]2(O)[C@@H](C=C(CO)C[C@@]3(O)C(=O)C(C)=C[C@@H]23)[C@@H]2C(C)(C)[C@]12OC(=O)CCC [4α-PDB, 4-α-phorbol-12,13-dibutyrate]
[1]; concentrations up to 10 μM (data not shown)
  contraction of aortic rings by 4α-PDB itself: could not contract aortic rings at concentrations up to 10 μM
[2]; 10 μM 4α-PDB
  alterations in EC50 values for KCl: no significant alterations in EC50 values for the agonists
  contractions to KCl: significantly impaired contractions to NE and KCl
[2]; read-out: EC50 value for KCl contraction (EC50 of the agonist KCl), rings incubated with 4α-PDB 10.0 μM, 16 h
  EC50: 28000 µM
[3]
  contractions to NE; vascular suppression: significantly impaired contractions to NE and KCl; also recorded: equally effective at causing vascular suppression
[3]; 10 μM 4α-PDB
  alterations in EC50 values for NE: no significant alterations in EC50 values for the agonists
[3]; read-out: EC50 value for NE contraction (EC50 of the agonist NE), rings incubated with 4α-PDB 10.0 μM, 16 h
  EC50: 0.286 µM

## CC1CNCCN1S(=O)(=O)c1cccc2cnccc12 (stereo not shown) [H7, 1-(5-isoquinolinylsulfonyl)-2-methyl piperazine]
[4]
  blocking of PDB induced contraction: ineffective blocker of PDB induced contraction
  inhibition of KCl elicited contraction: significantly inhibits KCl elicited contraction
[5]
  platelet aggregation after stimulation: blocked
[6]
  endothelial cell permeability response to inflammatory agents: abrogated
[7]
  adhesive proteins on endothelial cell surfaces: reduced
[8]; [14]
  EC50 and Emax values to KCl versus control tissue: did not vary significantly from control tissue
  protection against LPS-induced contractile dysfunction (KCl): shielded the tissue from LPS-induced contractile dysfunction
[8]; [15]
  EC50: 32000 µM
[8]; [16]
  EC50: 28000 ± 1000 µM
[8]; [17]
  maximum contraction to KCl: significant increases in maximum contraction
  sensitivity to KCl: no enhancement in sensitivity to KCl
[9]; [14]
  EC50 and Emax (sensitivity and maximum contraction) to NE versus control tissue: not significantly different from control tissue
[9]; [15]
  EC50: 0.099 µM
[9]; [16]
  EC50: 0.051 ± 0.015 µM
[9]; co-incubation, inhibitor 25 μM, LPS 10 ng/ml
  blocking of LPS effects on contraction to NE: blocked
[9]; [17]
  contractile function / sensitivity to NE: little change in contractile function
[9]; intact rings, H7 25 μM
  abrogation of LPS effects on contractile function: clearly abrogated the majority of the deleterious effects of LPS on rat aortic tissue contractile function

## CCCC(=O)O[C@@H]1[C@@H](C)[C@@]2(O)[C@@H](C=C(CO)C[C@]3(O)C(=O)C(C)=C[C@@H]23)[C@@H]2C(C)(C)[C@]12OC(=O)CCC [PDB, 4β-phorbol-12,13-dibutyrate]
[1]; Rattus norvegicus, 16 h
  EC50: 0.041 ± 0.003 µM
[1]; Rattus norvegicus
  EC50: 0.032 ± 0.004 µM
[1]; Rattus norvegicus, read-out: maximum contraction caused by PDB
  Emax: > 90%
[2]; read-out: EC50 value for KCl contraction (EC50 of the agonist KCl), rings incubated with 4β-PDB 0.1 μM, 16 h
  EC50: 22000 µM
[2]; read-out: EC50 value for KCl contraction (EC50 of the agonist KCl), rings incubated with 4β-PDB 1.0 μM, 16 h
  EC50: 27000 µM
[2]; read-out: EC50 value for KCl contraction (EC50 of the agonist KCl), rings incubated with 4β-PDB 10.0 μM, 16 h
  EC50: 36000 µM
[3]; read-out: EC50 value for NE contraction (EC50 of the agonist NE), rings incubated with 4β-PDB 0.1 μM, 16 h
  EC50: 0.056 µM
[3]; read-out: EC50 value for NE contraction (EC50 of the agonist NE), rings incubated with 4β-PDB 1.0 μM, 16 h
  EC50: 0.184 µM
[3]; read-out: EC50 value for NE contraction (EC50 of the agonist NE), rings incubated with 4β-PDB 10.0 μM, 16 h
  EC50: 0.283 µM

## CCCCCCCCCCCCCC(=O)O[C@@H]1[C@@H](C)[C@@]2(O)[C@@H](C=C(CO)C[C@]3(O)C(=O)C(C)=C[C@@H]23)[C@@H]2C(C)(C)[C@]12OC(C)=O [PMA]
[10]
  synthesis of PAF or LTB4: could not cause synthesis of either PAF or LTB4

## CCCCCCCCCCCCCC(=O)O[C@@H]1[C@@H](C)[C@@]2(O)[C@@H](C=C(CO)C[C@]3(O)C(=O)C(C)=C[C@@H]23)[C@@H]2C(C)(C)[C@]12OC(C)=O [TPA]
[11]
  whole blood serum induced intracellular Ca^2+ mobilization: inhibits whole blood serum induced intracellular Ca^2+ mobilization
[12]
  cell proliferation: modulates cell proliferation

## CN[C@@H]1C[C@H]2O[C@@](C)([C@@H]1OC)n1c3ccccc3c3c4c(c5c6ccccc6n2c5c31)C(=O)NC4 [staurosporine]
[5]
  platelet aggregation after stimulation: blocked
[7]
  adhesive proteins on endothelial cell surfaces: reduced

## lipid A
[13]
  activation of PKC in vitro: can directly activate PKC in vitro

## polymyxin B
[5]
  platelet aggregation after stimulation: blocked
